Experimental data reported in patent publication US7563895B2, “Quinoxaline compounds” (Janssen Pharmaceutica, N.V., priority 2003, dated 2009).

Columns and labels:
[1] = biological target: T1, CCK2 receptor (Homo sapiens, UniProt P32239); assay: CCK2 receptor radioligand binding assay ([125I]-BH-CCK-8S, HEKZFP cell membranes); conditions: competition with [125I]-BH-CCK-8S, membranes of induced HEKZFP cells, 60 min at 21±3° C., Cheng-Prusoff
T1 construct: Membranes were prepared from the HEKZFP cells after induction; endogenous in cells; host or cells: HEKZFP cells (T-REx-293 with tet-inducible ZFP-VP16 specific for the CCK2R gene), doxycycline-induced; membrane preparation
T1 sequence (P32239 1-447): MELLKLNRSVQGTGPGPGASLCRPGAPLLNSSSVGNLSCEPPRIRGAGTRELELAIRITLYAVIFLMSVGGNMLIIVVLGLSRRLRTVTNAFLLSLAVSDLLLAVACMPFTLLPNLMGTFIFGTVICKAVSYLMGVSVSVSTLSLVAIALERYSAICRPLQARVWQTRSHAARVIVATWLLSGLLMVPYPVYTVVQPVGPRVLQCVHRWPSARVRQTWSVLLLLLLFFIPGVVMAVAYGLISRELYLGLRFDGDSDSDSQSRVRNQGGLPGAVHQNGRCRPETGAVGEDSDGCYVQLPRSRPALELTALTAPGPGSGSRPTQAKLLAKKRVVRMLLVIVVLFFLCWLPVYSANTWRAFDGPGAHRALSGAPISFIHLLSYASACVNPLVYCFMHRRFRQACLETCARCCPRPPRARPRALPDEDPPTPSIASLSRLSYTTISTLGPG
Protocol: Zinc Finger Proteins (ZFP) specific for the CCK2R gene were identified by Sangamo Biosciences. The ZFP domain was fused with the herpes simplex virus VP16 activation domain, and the fusion protein was subsequently cloned into the pcDNA3 mammalian expression vector (Invitrogen, San Diego, Calif.). […] After 2 weeks of selection in culture medium containing […] Zeocin (Invitrogen), sixty drug-resistant stable clones were isolated and analyzed for ZFP expression as well as CCK2R induction upon addition of doxycycline to the culture medium.
HEKZFP cells were grown in DMEM supplemented with L-glutamine (2 mM), penicillin (50 units/mL) and streptomycin (50 μg/mL) and 10% FBS (v/v).
Membranes were prepared from the HEKZFP cells after induction. […] The thawed pellets were homogenized using a Polytron PT-10 (7×1 s). The homogenates were centrifuged for 5 min at 1500 rpm (600×g), and the resulting pellets were discarded. The supernatants were re-centrifuged in order to collect the receptor-membrane pellets (25 min 15,000 rpm; 39,800×g), which were re-suspended in buffer A.
The assay preparation was incubated for 1 h at 21±3° C., and then the assay was terminated by rapid filtration of the preparation under reduced pressure. The loaded filters were washed three times using undiluted PBS (100 μL), and then 100 μL of scintillation fluid was added to the filter plate. Bound radioactivity was determined using a Topcount (Packard BioScience, Meriden, Conn.) with a count time of 1 min. […] To validate the radioligand concentration and incubation time for the assay, saturation and kinetic binding studies were also conducted (see M. F. Morton, The Pharmacological Characterization of Cholecystokinin Receptors in the Human Gastrointestinal Tract. PhD Thesis, University of London, 2000). […] The assay was then terminated according to the procedure outlined above.
The pKi values were determined using the equation of Y.-C.
To circumvent problems associated with computer-assisted data analysis of compounds with low affinity, the data obtained in the current study were weighed according to a method described by Morton. In brief, 100% and 0% specific binding were defined independently using total binding and binding obtained in the presence of a high concentration of the reference antagonist, 2-NAP.

[2] = biological target: T2, CCK2 receptor (Cavia porcellus, UniProt H0VZC5); assay: Guinea-pig gastric corpeal muscle assay (pentagastrin-induced contraction of isolated muscle strips); conditions: pentagastrin concentration-response curves
T2 construct: strips of muscle were dissected and suspended in isolated tissue organ baths; from tissue; host or cells: guinea-pig gastric corpeal muscle strips
T2 sequence (H0VZC5 1-426): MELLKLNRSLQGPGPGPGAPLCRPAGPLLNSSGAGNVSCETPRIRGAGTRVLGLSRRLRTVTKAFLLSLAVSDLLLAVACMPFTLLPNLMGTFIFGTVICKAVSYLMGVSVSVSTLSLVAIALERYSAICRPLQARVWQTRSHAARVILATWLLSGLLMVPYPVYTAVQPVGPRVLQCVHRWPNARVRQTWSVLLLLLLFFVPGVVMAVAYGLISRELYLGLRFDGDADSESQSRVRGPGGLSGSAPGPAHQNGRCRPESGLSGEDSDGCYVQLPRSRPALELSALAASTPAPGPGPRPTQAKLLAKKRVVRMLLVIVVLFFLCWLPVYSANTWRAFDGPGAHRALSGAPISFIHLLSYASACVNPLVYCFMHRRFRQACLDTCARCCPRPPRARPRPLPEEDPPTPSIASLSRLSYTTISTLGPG
Protocol: Guinea-Pig Gastric Corpeal Muscle Assay
CCK2 receptor-mediated muscle contraction was measured in an isolated muscle-strip assay of guinea-pig gastric corpeal muscle according to the methods described by Roberts et al. (S. P. Roberts, E. A. Harper, G. F. Watt, V. P. Gerskowitch, R. A. Hull, N. P. Shankley, and J. W. Black, Br. J. Pharmacol., 1996, 118(7): 1779-1789). In brief, strips of muscle were dissected and suspended in isolated tissue organ baths for isotonic muscle contraction recording. The baths, containing Krebs-Henseleit solution, were maintained at 24° C. and gassed continuously with 95% O2 and 5% CO2. CCK1 receptors known to be present in this assay were blocked using a selective concentration of a suitable CCK1 receptor antagonist (e.g. 2-NAP). The effectiveness of the test compounds was assessed by measuring their effect on contractile concentration-response curves obtained using a well-characterized surrogate hormone gastrin (pentagastrin).

Row | Ki [1] [nM] | behaviour in the assay (mode of antagonism) [2] | Kb ([2]; CCK1 receptors blocked, 24° C., read-out: pKB value (converted)) [nM] | Compound
1 | 50.1 |  |  | C[C@H](NC(=O)c1ccc(I)cc1NS(=O)(=O)c1cccc2nccnc12)c1ccc(Cl)cc1Cl [Example 66, (S)-N-[1-(2,4-Dichloro-phenyl)-ethyl]-4-iodo-2-(quinoxaline-5-sulfonylamino)-benzamide]
2 | 100 |  |  | O=C(N[C@H](CF)c1ccc(F)cc1)c1ccc(Cl)cc1NS(=O)(=O)c1cccc2nccnc12 [Example 72, (S)-4-Chloro-N-[2-fluoro-1-(4-fluoro-phenyl)-ethyl]-2-(quinoxaline-5-sulfonylamino)-benzamide]
3 | 20 | competitive antagonist | 1.58 | C[C@@H](NC(=O)c1ccc(Br)cc1NS(=O)(=O)c1cccc2nccnc12)c1ccc(F)cc1F [Example 2, (R)-4-Bromo-N-[1-(2,4-difluoro-phenyl)-ethyl]-2-(quinoxaline-5-sulfonylamino)-benzamide]
4 | 25.1 |  |  | O=C(c1ccc(I)cc1NS(=O)(=O)c1cccc2nccnc12)N1CCCCC1 [Example 4, Quinoxaline-5-sulfonic acid [5-iodo-2-(piperidine-1-carbonyl)-phenyl]-amide]
5 | 63.1 |  |  | O=C(NC(CF)c1ccc(F)cc1F)c1ccc(I)cc1NS(=O)(=O)c1cccc2nccnc12 (stereo not shown) [Example 75, N-[1-(2,4-Difluoro-phenyl)-2-fluoro-ethyl]-4-iodo-2-(quinoxaline-5-sulfonylamino)-benzamide]
